# Data taken from US20120219615A1, “Therapeutic Use of a TLR Agonist and Combination Therapy” (The Trustees of the University of Pennsylvania, priority 2010, published 2012).
# System: G-CSF, MCP-1, MIP-1β, TNFα
# Experiment: Phase I clinical study: pharmacodynamic response, plasma immune mediators (MAP)
# Assay type: in vivo
# Conditions: human, s.c., first dose
# Experimental: Study Procedures: VTX-2337 was administered weekly via subcutaneous injection on Days 1, 8, and 15 of a 28-day dosing cycle for two cycles. Using a modified Fibonacci dose-escalation scheme, successive cohorts received doses ranging from 0.1 mg/m^2 to 3.9 mg/m^2 of VTX-2337. Plasma samples were collected for pharmacokinetic analysis after the first dose of the first treatment cycle and for pharmacodynamic analyses after the first dose of the first and second treatment cycles.
# To evaluate the pharmacodynamic (PD) response to VTX-2337, blood was collected at 0, 4, 8, 24 hours after subcutaneous administration of the first dose of the first cycle of VTX-2337. Plasma levels of immune mediators were quantified using the human multiple analyte panel (MAP), version 1.8 (Rules Based Medicine). […] Levels of mediators in plasma collected from 9 healthy volunteers are shown for comparison to the oncology population. […]
smiles,measurement,setting,value
"CCCN(CCC)C(=O)C1=Cc2ccc(-c3ccc(C(=O)N4CCCC4)cc3)cc2N=C(N)C1 [VTX-2337, 2-amino-N,N-dipropyl-8-(4-(pyrrolidine-1-carbonyl)phenyl)-3H-benzo[b]azepine-4-carboxamide]",G-CSF plasma level,"Cohort 1 (0.1 mg/m^2), 0 Hr",9.7 ± 1.9 pg/mL
same,MCP-1 plasma level,"Cohort 1 (0.1 mg/m^2), 0 Hr",247 ± 62.7 pg/mL
same,MIP-1β plasma level,"Cohort 1 (0.1 mg/m^2), 0 Hr",201 ± 73.8 pg/mL
same,TNFα plasma level,"Cohort 1 (0.1 mg/m^2), 0 Hr",11.4 ± 4.4 pg/mL
same,G-CSF plasma level,"Cohort 1 (0.1 mg/m^2), 4 Hr",8.6 ± 1.6 pg/mL
same,MCP-1 plasma level,"Cohort 1 (0.1 mg/m^2), 4 Hr",223 ± 58.8 pg/mL
same,MIP-1β plasma level,"Cohort 1 (0.1 mg/m^2), 4 Hr",196 ± 71.9 pg/mL
same,TNFα plasma level,"Cohort 1 (0.1 mg/m^2), 4 Hr",10.5 ± 2.6 pg/mL
same,G-CSF plasma level,"Cohort 1 (0.1 mg/m^2), 8 Hr",11.9 ± 4.4 pg/mL
same,MCP-1 plasma level,"Cohort 1 (0.1 mg/m^2), 8 Hr",280 ± 97.0 pg/mL
same,MIP-1β plasma level,"Cohort 1 (0.1 mg/m^2), 8 Hr",204 ± 74.0 pg/mL
same,TNFα plasma level,"Cohort 1 (0.1 mg/m^2), 8 Hr",10.3 ± 4.0 pg/mL
same,G-CSF plasma level,"Cohort 1 (0.1 mg/m^2), 24 Hr",9.2 ± 2.5 pg/mL
same,MCP-1 plasma level,"Cohort 1 (0.1 mg/m^2), 24 Hr",250 ± 85.0 pg/mL
same,MIP-1β plasma level,"Cohort 1 (0.1 mg/m^2), 24 Hr",207 ± 73.8 pg/mL
same,TNFα plasma level,"Cohort 1 (0.1 mg/m^2), 24 Hr",10.2 ± 3.6 pg/mL
same,G-CSF plasma level,"Cohort 2 (0.2 mg/m^2), 0 Hr",7.8 ± 3.2 pg/mL
same,MCP-1 plasma level,"Cohort 2 (0.2 mg/m^2), 0 Hr",245 ± 167 pg/mL
same,MIP-1β plasma level,"Cohort 2 (0.2 mg/m^2), 0 Hr",230 ± 84.0 pg/mL
same,TNFα plasma level,"Cohort 2 (0.2 mg/m^2), 0 Hr",9.7 ± 5.7 pg/mL
same,G-CSF plasma level,"Cohort 2 (0.2 mg/m^2), 4 Hr",11.5 ± 7.8 pg/mL
same,MCP-1 plasma level,"Cohort 2 (0.2 mg/m^2), 4 Hr",235 ± 84.6 pg/mL
same,MIP-1β plasma level,"Cohort 2 (0.2 mg/m^2), 4 Hr",239 ± 74.0 pg/mL
same,TNFα plasma level,"Cohort 2 (0.2 mg/m^2), 4 Hr",10.8 ± 5.0 pg/mL
same,G-CSF plasma level,"Cohort 2 (0.2 mg/m^2), 8 Hr",19.0 ± 16.5 pg/mL
same,MCP-1 plasma level,"Cohort 2 (0.2 mg/m^2), 8 Hr",298 ± 100 pg/mL
same,MIP-1β plasma level,"Cohort 2 (0.2 mg/m^2), 8 Hr",247 ± 84.7 pg/mL
same,TNFα plasma level,"Cohort 2 (0.2 mg/m^2), 8 Hr",10.5 ± 6.0 pg/mL
same,G-CSF plasma level,"Cohort 2 (0.2 mg/m^2), 24 Hr",15.4 ± 9.0 pg/mL
same,MCP-1 plasma level,"Cohort 2 (0.2 mg/m^2), 24 Hr",301 ± 159 pg/mL
same,MIP-1β plasma level,"Cohort 2 (0.2 mg/m^2), 24 Hr",280 ± 115 pg/mL
same,TNFα plasma level,"Cohort 2 (0.2 mg/m^2), 24 Hr",12.4 ± 6.1 pg/mL
same,G-CSF plasma level,"Cohort 3 (0.4 mg/m^2), 0 Hr",12.7 ± 6.0 pg/mL
same,MCP-1 plasma level,"Cohort 3 (0.4 mg/m^2), 0 Hr",129 ± 30.0 pg/mL
same,MIP-1β plasma level,"Cohort 3 (0.4 mg/m^2), 0 Hr",172 ± 59.0 pg/mL
same,TNFα plasma level,"Cohort 3 (0.4 mg/m^2), 0 Hr",9.0 ± 4.9 pg/mL
same,G-CSF plasma level,"Cohort 3 (0.4 mg/m^2), 4 Hr",9.5 ± 0.9 pg/mL
same,MCP-1 plasma level,"Cohort 3 (0.4 mg/m^2), 4 Hr",137 ± 30.7 pg/mL
same,MIP-1β plasma level,"Cohort 3 (0.4 mg/m^2), 4 Hr",215 ± 65.6 pg/mL
same,TNFα plasma level,"Cohort 3 (0.4 mg/m^2), 4 Hr",10.8 ± 3.3 pg/mL
same,G-CSF plasma level,"Cohort 3 (0.4 mg/m^2), 8 Hr",63.8 ± 60.1 pg/mL
same,MCP-1 plasma level,"Cohort 3 (0.4 mg/m^2), 8 Hr",251 ± 87.9 pg/mL
same,MIP-1β plasma level,"Cohort 3 (0.4 mg/m^2), 8 Hr",213 ± 88.8 pg/mL
same,TNFα plasma level,"Cohort 3 (0.4 mg/m^2), 8 Hr",9.6 ± 3.1 pg/mL
same,G-CSF plasma level,"Cohort 3 (0.4 mg/m^2), 24 Hr",15.8 ± 3.5 pg/mL
same,MCP-1 plasma level,"Cohort 3 (0.4 mg/m^2), 24 Hr",99.5 ± 6.9 pg/mL
same,MIP-1β plasma level,"Cohort 3 (0.4 mg/m^2), 24 Hr",173 ± 67.4 pg/mL
same,TNFα plasma level,"Cohort 3 (0.4 mg/m^2), 24 Hr",10.0 ± 2.9 pg/mL
same,G-CSF plasma level,"Cohort 4 (0.8 mg/m^2), 0 Hr",13.2 ± 8.9 pg/mL
same,MCP-1 plasma level,"Cohort 4 (0.8 mg/m^2), 0 Hr",260 ± 150 pg/mL
same,MIP-1β plasma level,"Cohort 4 (0.8 mg/m^2), 0 Hr",165 ± 63.9 pg/mL
same,TNFα plasma level,"Cohort 4 (0.8 mg/m^2), 0 Hr",16.7 ± 12.6 pg/mL
same,G-CSF plasma level,"Cohort 4 (0.8 mg/m^2), 4 Hr",49.8 ± 80.3 pg/mL
same,MCP-1 plasma level,"Cohort 4 (0.8 mg/m^2), 4 Hr",1037 ± 1920 pg/mL
same,MIP-1β plasma level,"Cohort 4 (0.8 mg/m^2), 4 Hr",450 ± 641 pg/mL
same,TNFα plasma level,"Cohort 4 (0.8 mg/m^2), 4 Hr",22.0 ± 14.6 pg/mL
same,G-CSF plasma level,"Cohort 4 (0.8 mg/m^2), 8 Hr",137 ± 124 pg/mL
same,MCP-1 plasma level,"Cohort 4 (0.8 mg/m^2), 8 Hr",673 ± 386 pg/mL
same,MIP-1β plasma level,"Cohort 4 (0.8 mg/m^2), 8 Hr",287 ± 177 pg/mL
same,TNFα plasma level,"Cohort 4 (0.8 mg/m^2), 8 Hr",19.0 ± 10.6 pg/mL
same,G-CSF plasma level,"Cohort 4 (0.8 mg/m^2), 24 Hr",35.7 ± 14.7 pg/mL
same,MCP-1 plasma level,"Cohort 4 (0.8 mg/m^2), 24 Hr",267 ± 104 pg/mL
same,MIP-1β plasma level,"Cohort 4 (0.8 mg/m^2), 24 Hr",183 ± 55.9 pg/mL
same,TNFα plasma level,"Cohort 4 (0.8 mg/m^2), 24 Hr",17.5 ± 8.7 pg/mL
